# From US4820694A, “Modifications of 3-O-demethylmycinose in macrocin and lactenocin” (priority 1986, dated 1989)
# Read-outs that look alike come from different tables or passages of the source.
# Columns and labels:
# [1] = test system: Streptococcus pneumoniae Park I; experiment: microbe, parasite or virus in culture; format: cell-based; settings: Streptococcus pneumoniae
# Protocol: (§1) The MIC's in Table III were determined by standard agar-dilution assays. The MIC's in Table IV were obtained using conventional brothdilution microtiter tests.
# [2] = test system: Staphylococcus aureus S13E; experiment: microbe, parasite or virus in culture; format: cell-based; settings: Staphylococcus aureus, S13E
# Protocol: as §1
# Escherichia coli EC14 = experiment: standard agar-dilution MIC assay; format: cell-based; settings: agar-dilution, read-out: MIC
# Protocol: as §1
# [3] = test system: Staphylococcus aureus X1.1; experiment: standard agar-dilution MIC assay; format: cell-based; settings: Staphylococcus aureus, X1.1
# Protocol: as §1
# [4] = test system: Staphylococcus epidermidis EPI1; experiment: standard agar-dilution MIC assay; format: cell-based; settings: Staphylococcus epidermidis, EPI1
# Protocol: as §1
# [5] = test system: Staphylococcus aureus X400; experiment: standard agar-dilution MIC assay; format: cell-based; settings: Staphylococcus aureus, X400
# Protocol: as §1
# [6] = test system: Streptococcus Group D 2041; experiment: standard agar-dilution MIC assay; format: cell-based; settings: GROUPD2041
# Protocol: as §1
# [7] = test system: Klebsiella pneumoniae X68; experiment: standard agar-dilution MIC assay; format: cell-based; settings: Klebsiella pneumoniae, X68; agar-dilution; read-out: MIC
# Protocol: as §1
# [8] = test system: Staphylococcus aureus V41; experiment: standard agar-dilution MIC assay; format: cell-based; settings: Staphylococcus aureus, V41
# Protocol: as §1
# [9] = test system: Streptococcus pyogenes C203; experiment: standard agar-dilution MIC assay; format: cell-based; settings: Streptococcus pyogenes, C203
# Protocol: as §1
# [10] = test system: Streptococcus Group D X66; experiment: standard agar-dilution MIC assay; format: cell-based; settings: read-out: MIC
# Protocol: as §1
# [11] = test system: Staphylococcus epidermidis 222; experiment: standard agar-dilution MIC assay; format: cell-based; settings: Staphylococcus epidermidis, 222
# Protocol: as §1
# [12] = test system: Haemophilus influenzae 76; experiment: standard agar-dilution MIC assay; format: cell-based; settings: Haemophilus influenzae, 76
# Protocol: as §1
# [13] = test system: Haemophilus influenzae C.L.; experiment: standard agar-dilution MIC assay; format: cell-based; settings: Haemophilus influenzae
# Protocol: as §1
# [14] = test system: Pseudomonas aeruginosa X239; experiment: standard agar-dilution MIC assay; format: cell-based; settings: Pseudomonas aeruginosa, X239; agar-dilution; read-out: MIC
# Protocol: as §1
# [15] = test system: Streptococcus pyogenes C203; experiment: protection of mice experimentally infected with S. pyogenes C203; format: in vivo; settings: mice, mg/kg × 2, doses given 1 and 4 hours postinfection, read-out: ED50
# Outline: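 Mice experimentally infected with S. pyogenes C203 got two doses of test compound, at 1 and 4 h postinfection. The ED50 is the dose in mg/kg (per dose, given twice) that protected 50% of the animals.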
# [16] = test system: Pasteurella hemolytica 22C; experiment: broth-dilution microtiter MIC test; format: cell-based; settings: Pasteurella, 22C
# Protocol: as §1
# [17] = test system: Pasteurella hemolytica 41D; experiment: broth-dilution microtiter MIC test; format: cell-based; settings: Pasteurella, 41D
# Protocol: as §1
# [18] = test system: Mycoplasma gallisepticum 29C; experiment: broth-dilution microtiter MIC test; format: cell-based; settings: Mycoplasmoides gallisepticum, 29C
# Protocol: as §1
# [19] = test system: Pasteurella multocida 68C; experiment: broth-dilution microtiter MIC test; format: cell-based; settings: Pasteurella multocida, 68C
# Protocol: as §1
# [20] = test system: Bordetella bronchiseptica; experiment: broth-dilution microtiter MIC test; format: cell-based; settings: Bordetella bronchiseptica; broth-dilution microtiter; read-out: MIC
# Protocol: as §1
# Streptococcus sp. 19F = experiment: broth-dilution microtiter MIC test; format: cell-based; settings: Streptococcus, SP.19F
# Protocol: as §1
# Mycoplasma synoviae 40A = experiment: broth-dilution microtiter MIC test; format: cell-based; settings: Mycoplasmopsis synoviae, 40A
# Protocol: as §1
# Mycoplasma hyorhinis 29E = experiment: broth-dilution microtiter MIC test; format: cell-based; settings: Mycoplasma, 29E
# Protocol: as §1
# [21] = test system: Staphylococcus aureus 19C; experiment: broth-dilution microtiter MIC test; format: cell-based; settings: Staphylococcus aureus, 19C
# Protocol: as §1
# [22] = test system: Mycoplasma gallisepticum 15E; experiment: broth-dilution microtiter MIC test; format: cell-based; settings: Mycoplasmoides gallisepticum, 15E
# Protocol: as §1
# [23] = test system: Pasteurella multocida 40G; experiment: broth-dilution microtiter MIC test; format: cell-based; settings: Pasteurella multocida, 40G
# Protocol: as §1
# [24] = test system: Mycoplasma hyopneumoniae S5972; experiment: broth-dilution microtiter MIC test; format: cell-based; settings: Mesomycoplasma hyopneumoniae, S5972
# Protocol: as §1
# [25] = test system: Pasteurella multocida 17E; experiment: broth-dilution microtiter MIC test; format: cell-based; settings: Pasteurella multocida, 17E
# Protocol: as §1
# [26] = test system: Mycoplasma gallisepticum 36H; experiment: broth-dilution microtiter MIC test; format: cell-based; settings: Mycoplasmoides gallisepticum, 36H
# Protocol: as §1
# [27] = test system: Pasteurella multocida 60A; experiment: broth-dilution microtiter MIC test; format: cell-based; settings: Pasteurella multocida, 60A
# Protocol: as §1
# [28] = test system: Pasteurella hemolytica 23C; experiment: broth-dilution microtiter MIC test; format: cell-based; settings: Pasteurella, 23C
# Protocol: as §1
# [29] = test system: Pasteurella multocida 22A; experiment: broth-dilution microtiter MIC test; format: cell-based; settings: Pasteurella multocida, 22A
# Protocol: as §1
# [30] = test system: Streptococcus Group D 9960; experiment: standard agar-dilution MIC assay; format: cell-based; settings: GROUPD9960, read-out: MIC
# Protocol: as §1
# [31] = broth-dilution microtiter, read-out: MIC
SMILES,MIC [2],MIC (Escherichia coli EC14),MIC [3],MIC [4],MIC [5],MIC [6],MIC [7],MIC [8],MIC [10],MIC [13],MIC [14],"ED50 ([15]; C203, Oral)","ED50 ([15]; C203, sc, Subcutaneous)",MIC [17],MIC [18],MIC [20],MIC (Streptococcus sp. 19F),MIC [28],MIC [29],MIC [16],further results
CCC1OC(=O)CC(O)C(C)C(OC2OC(C)C(OC3CC(C)(O)C(O)C(C)O3)C(N(C)C)C2OC(C)=O)C(CC=O)CC(C)C(=O)C=CC(C)=CC1COC1OC(C)C2OC(=O)OC2C1OC (stereo not drawn) [Compound 48],1 µg/mL,> 128 µg/mL,1 µg/mL,1 µg/mL,2 µg/mL,2 µg/mL,> 128 µg/mL,1 µg/mL,2 µg/mL,32 µg/mL,> 128 µg/mL,28 mg/kg,1.53 mg/kg,50 µg/mL,0.195 µg/mL,> 50 µg/mL,0.39 µg/mL,50 µg/mL,50 µg/mL,–,"MIC ([1]; agar-dilution, read-out: MIC): 0.12 µg/mL; MIC ([9]; agar-dilution, read-out: MIC): 0.5 µg/mL; MIC ([11]; agar-dilution, read-out: MIC): 0.5 µg/mL; MIC ([12]; agar-dilution, Ampicillin-resistant strain, read-out: MIC): 16 µg/mL; MIC [16, 31]: > 50 µg/mL; MIC [19, 31]: 12.5 µg/mL; MIC (Mycoplasma synoviae 40A; [31]): 0.097 µg/mL; MIC (Mycoplasma hyorhinis 29E; [31]): 1.56 µg/mL; MIC [21, 31]: 1.56 µg/mL; MIC [22, 31]: 12.5 µg/mL; MIC [23, 31]: 25 µg/mL; MIC [24, 31]: 0.097 µg/mL; MIC ([25]; broth-dilution microtiter, Bovine isolate, read-out: MIC): 12.5 µg/mL; MIC [26]: 50 µg/mL; MIC ([27]; broth-dilution microtiter, Avian isolate, read-out: MIC): 25 µg/mL"
"CCC1OC(=O)CC(O)C(C)C(OC2OC(C)C(O)C(N(C)C)C2O)C(CC=O)CC(C)C(=O)C=CC(C)=CC1COC1OC(C)C2OC(C)(C)OC2C1OC (stereo not drawn) [Compound 55, 3"",4""-Isopropylidene Derivative of Lactenocin]",2 µg/mL,> 128 µg/mL,2 µg/mL,2 µg/mL,4 µg/mL,16 µg/mL,> 128 µg/mL,2 µg/mL,32 µg/mL,16 µg/mL,> 128 µg/mL,> 100 mg/kg,> 10 mg/kg,50 µg/mL,0.39 µg/mL,> 50 µg/mL,–,50 µg/mL,25 µg/mL,50 µg/mL,"MIC [1]: 8 µg/mL; MIC [9]: 1 µg/mL; MIC [11]: 1 µg/mL; MIC [12]: 16 µg/mL; MIC (Mycoplasma synoviae 40A): 3.12 µg/mL; MIC (Mycoplasma hyorhinis 29E): 50 µg/mL; MIC [21]: 3.12 µg/mL; MIC [22, 31]: > 50 µg/mL; MIC [23]: 25 µg/mL; MIC [24]: 0.78 µg/mL; MIC [25]: 25 µg/mL; MIC [26, 31]: > 50 µg/mL; MIC [27]: 50 µg/mL"
"CCC1OC(=O)CC(O)C(C)C(OC2OC(C)C(OC3CC(C)(O)C(O)C(C)O3)C(N(C)C)C2O)C(CC=O)CC(C)C(=O)C=CC(C)=CC1COC1OC(C)C2OC(=O)OC2C1OC (stereo not drawn) [Compound 49, Macrocin-3'"",4'""-Carbonate Derivative]",0.5 µg/mL,> 128 µg/mL,0.5 µg/mL,1 µg/mL,1 µg/mL,–,> 128 µg/mL,0.5 µg/mL,1 µg/mL,32 µg/mL,> 128 µg/mL,85.6 mg/kg,1 mg/kg,50 µg/mL,0.195 µg/mL,> 50 µg/mL,0.39 µg/mL,25 µg/mL,25 µg/mL,50 µg/mL,"MIC ([1]; agar-dilution, read-out: MIC): 0.12 µg/mL; MIC [30]: 1 µg/mL; MIC ([9]; agar-dilution, read-out: MIC): 0.12 µg/mL; MIC [11]: 0.25 µg/mL; MIC [12]: 16 µg/mL; MIC [19]: 6.25 µg/mL; MIC (Mycoplasma synoviae 40A): 0.195 µg/mL; MIC (Mycoplasma hyorhinis 29E): 0.78 µg/mL; MIC [21]: 0.78 µg/mL; MIC [22]: 25 µg/mL; MIC [23]: 25 µg/mL; MIC [24, 31]: 0.097 µg/mL; MIC [25]: 12.5 µg/mL; MIC [26, 31]: > 50 µg/mL; MIC [27]: 25 µg/mL"
"CCC1OC(=O)CC(O)C(C)C(OC2OC(C)C(O)C(N(C)C)C2O)C(CCOc2ccccc2)CC(C)C(=O)C=CC(C)=CC1COC1OC(C)C2OC(=O)OC2C1OC (stereo not drawn) [Compound 53, 20-DH-20-O-Phenyl-lactenocin 3"",4""-Carbonate]",1 µg/mL,> 128 µg/mL,1 µg/mL,1 µg/mL,1 µg/mL,8 µg/mL,> 128 µg/mL,1 µg/mL,8 µg/mL,64 µg/mL,> 128 µg/mL,18.7 mg/kg,6.1 mg/kg,50 µg/mL,0.195 µg/mL,> 50 µg/mL,3.12 µg/mL,50 µg/mL,50 µg/mL,50 µg/mL,MIC [1]: 2 µg/mL; MIC [9]: 0.5 µg/mL; MIC [11]: 0.5 µg/mL; MIC [12]: 32 µg/mL; MIC [19]: 25 µg/mL; MIC (Mycoplasma synoviae 40A): 1.56 µg/mL; MIC (Mycoplasma hyorhinis 29E): 25 µg/mL; MIC [21]: 0.78 µg/mL; MIC [22]: 50 µg/mL; MIC [23]: 50 µg/mL; MIC [24]: 3.12 µg/mL; MIC [25]: 25 µg/mL; MIC [26]: 50 µg/mL; MIC [27]: 25 µg/mL
"CCC1OC(=O)CC(O)C(C)C(OC2OC(C)C(O)C(N(C)C)C2O)C(CCOc2ccccc2)CC(C)C(=O)C=CC(C)=CC1COC1OC(C)C=CC1OC (stereo not drawn) [Compound 43, 3"",4""-Di(dehydrodeoxy)-20-DH-20-O-phenyl-lactenocin]",0.25 µg/mL,> 128 µg/mL,0.25 µg/mL,0.25 µg/mL,–,1 µg/mL,> 128 µg/mL,–,1 µg/mL,32 µg/mL,> 128 µg/mL,77.7 mg/kg,> 10 mg/kg,50 µg/mL,0.39 µg/mL,> 50 µg/mL,0.78 µg/mL,50 µg/mL,50 µg/mL,50 µg/mL,"MIC [1]: 0.5 µg/mL; MIC ([5]; agar-dilution, Methicillin-resistant strain, read-out: MIC): 0.25 µg/mL; MIC ([8]; agar-dilution, Penicillin-resistant strain, read-out: MIC): 0.25 µg/mL; MIC [9]: 0.25 µg/mL; MIC ([11]; agar-dilution, read-out: MIC): 0.12 µg/mL; MIC [19]: 12.5 µg/mL; MIC [21]: 1.56 µg/mL; MIC [22]: 50 µg/mL; MIC [23]: 25 µg/mL; MIC [24]: 6.25 µg/mL; MIC [25]: 25 µg/mL; MIC [26]: 25 µg/mL; MIC [27]: 25 µg/mL"
